By inhibition is commonly meant the change of the read-out against control, counted positive when it falls. Broadly, the IC50 is the concentration that inhibits the measured activity by half. Read a low IC50 as inhibition by little substance.

The values that follow come from ChEMBL document CHEMBL1144582, “Identification of arylsulfonamides as Aquaporin 4 inhibitors” (Bioorg Med Chem Lett, 2007).

One test relates to Oocyte. The experiment in a line: Inhibition of human AQP4b-mediated water transport in Xenopus oocytes at 20 uM. In kind it is cell-based.
Test [1] can be described thus: Inhibition of human AQP4b-mediated water transport in Xenopus oocytes. The settings on record: Oocyte.

In the test with Oocyte, `CCOc1ccc2nc(S(N)(=O)=O)sc2c1` showed an inhibition of 68%.
Regarding `CC(=O)Nc1nnc(S(N)(=O)=O)s1` [ACETAZOLAMIDE], half-maximal inhibition in test [1] (IC50) required 900 nM.
For `CC(=O)Nc1ccc(S(N)(=O)=O)cc1`, the inhibition in the test on Oocyte stood at 23%.
